Test results reported in PubChem BioAssay (NCI).
Values joined by “and” are separate entries in the source; they are usually repeats but may differ in a detail not shown here. Equal values may be shown once.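 Each compound was tested at five concentrations against cells in 96-well plates for 48 hours. GI50: concentration for 50% inhibition of growth. TGI marks complete inhibition of growth.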 Where a SMILES comes first, the peptide text is derived from it. The star is where a group is joined. Cbz = O=C(OCc1ccccc1)*

What was measured:
Assay in all cases: inhibition of tumour cell growth, NCI panel, 48 h
MALME-3M melanoma = tested on: MALME-3M melanoma
RPMI-8226 leukemia = tested on: RPMI-8226 leukemia
SN12C renal = tested on: SN12C renal
SF-268 CNS = tested on: SF-268 CNS
NCI-H226 lung = tested on: NCI-H226 lung
K-562 leukemia = tested on: K-562 leukemia
CAKI-1 renal = tested on: CAKI-1 renal
M19-MEL melanoma = tested on: M19-MEL melanoma
HCT-15 colon = tested on: HCT-15 colon
OVCAR-8 ovarian = tested on: OVCAR-8 ovarian

Compound	TGI (MALME-3M melanoma) [µM]	TGI (RPMI-8226 leukemia) [µM]	TGI (SN12C renal)	TGI (SF-268 CNS)	TGI (NCI-H226 lung)	TGI (K-562 leukemia)	TGI (CAKI-1 renal) [µM]	TGI (M19-MEL melanoma) [µM]	TGI (HCT-15 colon) [µM]	TGI (OVCAR-8 ovarian)	GI50 (SN12C renal) [µM]	GI50 (SF-268 CNS) [µM]	GI50 (NCI-H226 lung) [nM]	GI50 (K-562 leukemia) [µM]	GI50 (OVCAR-8 ovarian) [µM]	GI50 (MALME-3M melanoma) [µM]	GI50 (RPMI-8226 leukemia) [nM]	GI50 (CAKI-1 renal) [µM]	GI50 (HCT-15 colon) [nM]
CC(=O)OC(CCC1(C)OC1COc1ccc(CCNC(=O)C=C(C)C)cc1)C(C)(C)OC(C)=O (stereo not drawn)	> 100	60.7	> 100 µM	> 100 µM	> 100 µM	> 100 µM	> 100	> 100	> 100	> 100 µM	–	–	–	–	–	–	–	–	–
CC(=O)O[C@]12CCCCCC1C1(O)C(O)CCCCC12 (stereo partly drawn)	> 100	> 100	> 100 µM	> 100 µM	> 100 µM	> 100 µM	–	> 100	> 100	> 100 µM	–	–	–	–	–	–	–	–	–
c1ccc2c(c1)OCCOCCOc1ccccc1OCCO2	88.2	70.2	> 100 µM	> 100 µM	> 100 µM	> 100 µM	> 100	> 100	> 100	> 100 µM	–	–	–	–	–	–	–	–	–
CCOC(=O)CCC(NC(=O)OCc1ccccc1)C(=O)NC(CCC(=O)OCC)C(=O)OCC (stereo not drawn) (Cbz-Glu(OEt)-Glu(OEt)-OEt; configuration not given here)	> 100	> 100	> 100 µM	> 100 µM	> 100 µM	> 100 µM	> 100	–	> 100	> 100 µM	–	–	–	–	–	–	–	–	–
COc1ccc(N2C(=O)C(=O)N(c3ccc(N=Nc4ccccc4)cc3)C2=S)cc1	33.8	> 100	33.2 µM	44.4 µM	48.4 µM	> 100 µM	47.2	–	32.4	35.6 µM	–	–	–	–	–	–	–	–	–
Cc1ccnc2c1C(=O)C1=C(OC(C)(C)CC1O)C2=O (stereo not drawn)	3.02	> 39.3	12.4 µM	17.5 µM	21.2 µM	> 100 µM	19	–	9.97	11.8 µM	–	–	–	–	–	–	–	–	–
Oc1c(Br)ccc2cccnc12	> 64.4	> 27.9	> 100 µM	> 100 µM	38.5 µM	> 31.4 µM	60.3	–	> 100	> 100 µM	–	–	–	–	–	–	–	–	–
CC(=O)c1ccc2c(c1)C(=O)c1sc(C(C)=O)cc1C2=O	1.2	23.8	2.18 µM and 4.76 µM	3.85 µM and 3.41 µM	2.2 µM and 4.03 µM	50 µM and > 100 µM	4.48	–	2.18	1.69 µM and 2.67 µM	0.953	0.819	1430	0.264	0.587	–	–	–	–
CCOc1cc(NC(C)=O)ccc1C(=O)NNS(=O)(=O)c1ccc(NC(C)=O)cc1	> 100	86.4	> 100 µM	> 100 µM	89.5 µM	> 100 µM	> 100	–	> 100	> 100 µM	–	–	–	–	–	–	–	–	–
N#Cc1cc2c(cc1Cl)Sc1nnc(Nc3ccccc3)n1S2(=O)=O	5	9.17	3.24 µM	10.5 µM	5.99 µM	11.1 µM	3.34	–	5.61	4.41 µM	–	–	–	–	–	–	–	–	–
O=C(Cn1c2ccc(Br)cc2c2nc3ccccc3nc21)NNC(=S)NC1CCCCC1	39.5	26.8	35.6 µM	39.6 µM	33.6 µM	34.2 µM	38.6	–	25.4	27.8 µM	–	–	–	–	–	–	–	–	–
CC(=O)SC(C[N+](=O)[O-])c1ccc2c(c1)OCO2 (stereo not drawn)	15.8	> 22.7	14.7 µM	> 82.5 µM	46 µM	> 28.7 µM	18.6	–	11.1	28.1 µM	–	–	–	–	–	–	–	–	–
C[n+]1c2ccccc2c(NC(CCCN=C(N)N)C(=O)O)c2ccccc21 (stereo not drawn)	> 100	> 100	> 100 µM	> 100 µM	> 100 µM	> 100 µM	> 100	> 100	> 100	> 100 µM	–	–	–	–	–	–	–	–	–
CC(=O)Nc1c(C(=N)C#N)ncn1CCO	> 100	> 100	> 100 µM	> 100 µM	> 100 µM	> 100 µM	> 100	–	> 100	> 100 µM	–	–	–	–	–	–	–	–	–
O=C(N[C@@H](Cc1coc2ccccc12)B(O)O)[C@@H]1C[C@H]2CC[C@@H]1O2	20.8	5.2	> 100 µM	> 100 µM	2.76 µM	> 100 µM	> 100	–	84.9	> 100 µM	9.24	9.62	1130	9.99	80.8	3.07	450	4.47	4540
CCC1CC(O)c2c(O)c3c(c(O)c2C1O)C(=O)c1cccc(O)c1C3=O (stereo not drawn) (tested in a mixture with another compound)	0.0547	0.0663	1.05 µM	0.501 µM	0.0532 µM	0.0319 µM	0.0706	–	–	0.181 µM and 1.19 µM	–	–	–	–	–	–	–	–	23.7

Compound	TGI (MALME-3M melanoma) [µM]	TGI (RPMI-8226 leukemia) [µM]	TGI (SN12C renal)	TGI (SF-268 CNS)	TGI (NCI-H226 lung)	TGI (K-562 leukemia)	TGI (CAKI-1 renal) [µM]	TGI (M19-MEL melanoma) [µM]	TGI (HCT-15 colon) [µM]	TGI (OVCAR-8 ovarian)	GI50 (SN12C renal) [µM]	GI50 (SF-268 CNS) [µM]	GI50 (NCI-H226 lung) [nM]	GI50 (K-562 leukemia) [µM]	GI50 (OVCAR-8 ovarian) [µM]	GI50 (MALME-3M melanoma) [µM]	GI50 (RPMI-8226 leukemia) [nM]	GI50 (CAKI-1 renal) [µM]	GI50 (HCT-15 colon) [nM]
CC1CC(Nc2ccc(Br)cc2)N(C(=O)c2ccc(Br)cc2)O1 (stereo not drawn)	> 10	> 10	> 10 µM	> 10 µM	> 10 µM	> 10 µM	> 10	–	> 10	> 10 µM	–	–	–	–	–	–	–	–	–
COc1ccc(C2COc3c(ccc(O)c3C)C2)cc1OC (stereo not drawn)	> 200	166	> 200 µM	> 200 µM	> 139 µM	> 200 µM	> 200	> 200	> 200	> 200 µM	–	–	–	–	–	–	–	–	–
Cc1ccc(C(=O)NCc2ccccc2)cc1N=NN(C)C	> 100	> 100	> 100 µM	> 100 µM	> 100 µM	> 100 µM	> 100	> 100	> 100	> 100 µM	–	–	–	–	–	–	–	–	–
COc1ccc2nc(-c3ccccc3)c(=O)[nH]c2c1	> 100	> 100	> 100 µM	> 100 µM	> 100 µM	> 100 µM	> 100	–	> 100	> 100 µM	–	–	–	–	–	–	–	–	–
O=c1[nH]nc(Cc2ccc(Cl)cc2)n1/N=C/c1cccs1	> 100	> 100	> 100 µM	42.9 µM	> 100 µM	> 100 µM	> 100	–	> 100	> 100 µM	–	–	–	–	–	–	–	–	–
COCn1cnc2c(=O)nc(SC)n(-c3ccccc3)c21	> 100	> 100	> 100 µM	> 100 µM	> 100 µM	> 100 µM	> 100	–	> 100	> 100 µM	–	–	–	–	–	–	–	–	–
CN1CC=C(c2c(N)nc(N)[nH]c2=O)CC1	> 100	> 100	> 100 µM	> 100 µM	> 100 µM	> 100 µM	> 100	–	> 100	> 100 µM	–	–	–	–	–	–	–	–	–
O=c1[nH]c2nc3ccccc3c(=O)n2/c1=C/c1cccs1	> 100	> 100	> 100 µM	> 100 µM	> 100 µM	> 100 µM	> 100	–	> 100	> 100 µM	–	–	–	–	–	–	–	–	–
CC(NC(=O)Cc1ccccc1)NC(=O)C(C)C(=O)NCc1ccccc1 (stereo not drawn)	> 100	> 100	> 100 µM	> 100 µM	77.8 µM	> 100 µM	> 100	–	> 100	> 100 µM	–	–	–	–	–	–	–	–	–
CCOC(=O)C(Cc1ccc(O)cc1)Nc1nc(=O)c2c(=O)oc(Cl)cc2o1 (stereo not drawn)	16.5	8.59	36.8 µM	17.3 µM	42.5 µM	31.6 µM	16.6	–	37.3	14 µM	–	–	–	–	–	–	–	–	–
O=C1CCSCCC(=O)Nc2ccccc2N1	> 100	> 100	> 100 µM	> 100 µM	> 100 µM	> 100 µM	> 100	–	> 100	> 100 µM	–	–	–	–	–	–	–	–	–
O=C1OCC2OC(=O)c3cc(O)c(O)c(O)c3-c3c(O)c(O)c(O)c4c3C(=O)OC(C2OC(=O)c2cc(O)c(O)c(O)c2-c2c1cc(O)c(O)c2O)C1OC(=O)C2C4=C(O)C(=O)C23Oc2cc(O)c4c(c2[C@H]13)O[C@H](c1ccc(O)c(O)c1)[C@@H](O)C4 (stereo partly drawn)	72.2	64.4	42 µM	50.7 µM	35.6 µM	72.3 µM	30.7	–	44.7	58.5 µM	–	–	–	–	–	–	–	–	–
O=[N+]([O-])c1c(F)c(F)c2c(c1F)N(CCCCCl)c1ccccc1S2	31.4	20.8	20.2 µM	18.3 µM	33.1 µM	4.74 µM	19.3	–	3.31	11.3 µM	–	–	–	–	–	–	–	–	–
CS(=O)(=O)N1CC(CCl)c2ccc(O)cc21 (stereo not drawn)	5	6.91	14.5 µM	3.61 µM	6.83 µM	> 100 µM	12.3	–	18.6	7.33 µM	–	–	–	–	–	–	–	–	–
NCCCN(CCCN)CCc1cn(C(=O)c2ccccc2)cn1	33.8	10	26.2 µM	24.2 µM	26.1 µM	> 37.4 µM	16.1	–	27.1	56.3 µM	–	–	–	–	–	–	–	–	–
